Data taken from PubChem BioAssay AID651642 (Sanford-Burnham Center for Chemical Genomics, 2012).

How the values were obtained:
HL-1 = assay: cardiomyocyte survival under oxidative or metabolic stress – cell-based, panel, H9c2 and HL-1, H2O2, 2-deoxyglucose, ATP luminescence, SAR follow-up (AID 651642)
H9c2 = assay: as above
[1] = H9c2/HL-1 cardiomyocyte 2-deoxyglucose damage, run 1, with 2-deoxyglucose
[2] = H9c2/HL-1 cardiomyocyte 2-deoxyglucose damage, run 2, with 2-deoxyglucose
[3] = H9c2/HL-1 cardiomyocyte 2-deoxyglucose damage, run 3, with 2-deoxyglucose
[4] = H9c2/HL-1 cardiomyocyte 2-deoxyglucose damage, run 4, with 2-deoxyglucose
[5] = H9c2/HL-1 cardiomyocyte H2O2 oxidative damage, run 1, with H2O2
[6] = H9c2/HL-1 cardiomyocyte H2O2 oxidative damage, run 2, with H2O2
[7] = H9c2/HL-1 cardiomyocyte H2O2 oxidative damage, run 3, with H2O2
[8] = H9c2/HL-1 cardiomyocyte H2O2 oxidative damage, run 4, with H2O2
[9] = H9c2/HL-1 cardiomyocyte 2-deoxyglucose damage, mean of runs, with 2-deoxyglucose, mean IC50 across panel
[10] = H9c2/HL-1 cardiomyocyte H2O2 oxidative damage, mean of runs, with H2O2, mean IC50 across panel

Compound | IC50 (HL-1; [1]) [µM] | IC50 (HL-1; [2]) [µM] | IC50 (HL-1; [3]) [µM] | IC50 (HL-1; [4]) [µM] | IC50 (HL-1; [5]) [µM] | IC50 (HL-1; [6]) [µM] | IC50 (HL-1; [7]) [µM] | IC50 (HL-1; [8]) [µM] | IC50 (H9c2; [1]) [µM] | IC50 (H9c2; [2]) [µM] | IC50 (H9c2; [3]) [µM] | IC50 (H9c2; [4]) [µM] | IC50 (H9c2; [5]) [µM] | IC50 (H9c2; [6]) [µM] | IC50 (H9c2; [7]) [µM] | IC50 (H9c2; [8]) [µM] | IC50 (HL-1; [9]) [µM] | IC50 (HL-1; [10]) [µM] | IC50 (H9c2; [9]) [µM] | IC50 (H9c2; [10]) [µM]
COc1cc(-c2cc(C(=O)NCC(=O)Nc3ccc(C(C)=O)cc3)c3ccccc3n2)cc(OC)c1OC | > 79 | > 79 | 6.28 | 7.65 | > 79 | > 79 | 7.43 | 9.32 | > 79 | > 79 | 6.74 | 8.41 | > 79 | > 79 | 1.62 | 1.71 | – | – | – | –
CCOC(=O)c1cccc(NC(=O)CNC(=O)c2cc(-c3cc(OC)c(OC)c(OC)c3)nc3ccc(OC)cc23)c1 | 1.59 | 1.73 | 2.93 | 2.94 | 3.75 | 3.81 | 2.62 | 4.12 | 4.42 | 4.8 | 1.68 | 1.75 | 0.965 | 0.974 | 0.483 | 0.534 | 2.3 | 3.57 | 3.16 | 0.739
COc1cc(-c2cc(C(=O)Nc3cccc(-c4nn[nH]n4)c3)c3ccccc3n2)cc(OC)c1OC | 27.6 | 57.3 | 48.6 | 56.7 | 26.1 | 28.8 | 15.2 | 29.8 | > 79 | > 79 | > 79 | > 79 | 24.2 | 24.3 | 16.4 | 18.6 | 47.5 | 25 | > 79 | 20.9
COc1cc(-c2cc(C(=O)Nc3cccc(C(=O)NC4CC4)c3)c3ccccc3n2)cc(OC)c1OC | 3.71 | 4.41 | 7.05 | 10.4 | 4.24 | 4.83 | 7.07 | 10.6 | 19.4 | 21 | 18.4 | 19.8 | 2 | 2.73 | 2.22 | 3.11 | 6.39 | 6.68 | 19.6 | 2.51
CCOC(=O)c1cccc(NC(=O)CNC(=O)c2cc(-c3cc(OC)c(OC)c(OC)c3)nc3ccc(C)cc23)c1 | 1.1 | 1.45 | 2.9 | 3.35 | 2.88 | 3.32 | 1.46 | 4.48 | 3.13 | 3.54 | 1.85 | 2.18 | 0.726 | 0.842 | 0.517 | 0.577 | 2.2 | 3.04 | 2.67 | 0.665
COC(=O)CNC(=O)c1cc(-c2cc(OC)c(OC)c(OC)c2)nc2ccccc12 | > 79 | > 79 | > 79 | > 79 | > 79 | 41.2 | > 79 | > 79 | > 79 | > 79 | > 79 | > 79 | > 79 | 39.1 | > 79 | > 79 | > 79 | – | > 79 | –
COc1cc(-c2cc(C(=O)Nc3cccc(C(C)=O)c3)c3ccc(Cl)cc3n2)cc(OC)c1OC | > 79 | > 79 | > 79 | > 79 | 3.07 | 3.46 | 0.875 | 1.65 | > 79 | > 79 | > 79 | > 79 | 3.39 | 3.79 | > 79 | > 79 | > 79 | 2.26 | > 79 | –
COc1cc(-c2cc(C(=O)Nc3cccc(C(C)=O)c3)c3cc(C)ccc3n2)cc(OC)c1OC | 4.82 | 5.03 | > 79 | > 79 | 4.85 | 5.7 | 2.78 | 3.12 | > 79 | > 79 | > 79 | > 79 | 4.03 | 8.34 | 3.55 | 4.29 | – | 4.11 | > 79 | 5.05
CCNC(=O)c1cccc(NC(=O)c2cc(-c3cc(OC)c(OC)c(OC)c3)nc3ccccc23)c1 | 5.11 | 6.24 | 13 | 13 | 3.81 | 11.5 | 3.71 | 7.74 | 21.3 | 22.2 | 22.4 | 22.8 | 4.85 | 4.86 | 2.88 | 3.41 | 9.33 | 6.69 | 22.2 | 4
COc1ccc2c(c1OC)C(=O)N1c3ccccc3C(=O)N(Cc3ccccc3Br)C21 (centres undefined) | 2.54 | 2.85 | 13.9 | 34.4 | > 79 | > 79 | > 79 | > 79 | > 79 | > 79 | > 79 | > 79 | > 79 | 2.03 | > 79 | > 79 | 13.4 | > 79 | > 79 | –
COc1cc(-c2cc(C(=O)Nc3cccc(C#N)c3)c3ccccc3n2)cc(OC)c1OC | 5.37 | 7.28 | > 79 | > 79 | > 79 | > 79 | 6.09 | 11.1 | > 79 | > 79 | > 79 | > 79 | 7.93 | 8.58 | > 79 | 6.2 | – | – | > 79 | –
COc1cc(-c2cc(C(=O)Nc3cccc(C(N)=O)c3)c3ccccc3n2)cc(OC)c1OC | 7.32 | 8.09 | 19.2 | 22.1 | 4.52 | 5.96 | 2.31 | 7.08 | 31.1 | 31.3 | > 79 | > 79 | 2.23 | 2.4 | 2.49 | 2.57 | 14.2 | 4.97 | – | 2.42
COc1cc(-c2cc(C(=O)Nc3cccc(C(C)=O)c3)c3ccccc3n2)cc(OC)c1OC | 5.68 | 6.27 | 8.63 | 13.9 | 5.59 | 5.68 | 6.71 | 10.3 | > 79 | > 79 | > 79 | > 79 | 3.74 | 4.04 | > 79 | 3.69 | 8.62 | 7.06 | > 79 | –
COc1cc(-c2cc(C(=O)Nc3cccc(C(=O)N4CCOCC4)c3)c3ccccc3n2)cc(OC)c1OC | 8.16 | 11.2 | 27.8 | 28.6 | 12.9 | 16.7 | 10.7 | 18.4 | > 79 | 60.5 | > 79 | > 79 | 6.19 | 7.7 | 4.73 | 5.07 | 19 | 14.7 | – | 5.92
COc1ccc2c(c1OC)C(=O)N1c3ccccc3C(=O)N(Cc3ccc(F)cc3)C21 (centres undefined) | 6.14 | 10.7 | 17.7 | 41.3 | > 79 | > 79 | > 79 | > 79 | > 79 | > 79 | > 79 | > 79 | > 79 | 8.03 | > 79 | > 79 | 19 | > 79 | > 79 | –
COc1cc(-c2cc(C(=O)Nc3cccc(C(=O)NCc4ccccc4)c3)c3ccccc3n2)cc(OC)c1OC | 0.74 | 0.813 | 1.85 | 2.05 | 1.7 | 2.25 | 2.4 | 6.96 | 3.81 | 4.57 | 2.32 | 2.81 | 1.54 | 1.62 | 0.678 | 0.686 | 1.36 | 3.33 | 3.38 | 1.13
CCOC(=O)c1cccc(NC(=O)CNC(=O)c2cc(-c3cc(OC)c(OC)c(OC)c3)nc3ccc(F)cc23)c1 | 1.56 | 1.76 | 3.27 | 3.74 | 1.7 | 3.23 | 1.98 | 2.6 | 4.83 | 5.33 | 1.98 | 3.04 | 0.838 | 0.849 | 0.526 | 0.541 | 2.58 | 2.38 | 3.79 | 0.688
